The subject of data set [1] is HCT-116 cells. The experiment in a line: MTT cell viability assay, HCT-116. The data set is classed as cell-based, human. The settings on record: 72 h; for IC50: MTT, IC50 ± SD. On the procedure: (§1) To evaluate the effects of the newly synthesized tetrahydroquinolin-2(1H)-one derivatives on cell viability, we treated human colon cancer cells HCT-116, human breast cancer cells MCF-7, and human non-small cell lung cancer cells A-549 with different concentrations of the compounds for 72 h. After incubation, the MTT (3-(4,5-dimethylthiazol-2-yl)-2,5-diphenyltetrazolium bromide) assay was performed and the cytotoxic potency of compounds (expressed in IC50) on the cells was determined in comparison to control cells treated with 1% of dimethyl sulfoxide (DMSO) (Table 1). […] We also compared the activity of 20d and 19b to the reference control drug Cisplatin, which is widely used in chemotherapy.
(§2) A-549 (CCL-185) and MCF-7 ([…]) cells were cultured in RPMI-1640 medium, while HCT-116 (CVCL-427), (hMLH1)-deficient (MMR^–) and hMLH1-proficient (MMR^+) RKO cells were cultured in McCoy’s 5A medium. The culture media were supplemented with 10% fetal bovine serum, 2 mM L-glutamine, and antibiotics (penicillin 62.6 µg/ml and streptomycin 40 µg/ml). Cultivation of cell lines was carried out at 37 °C under a humidified atmosphere containing 5% CO2, and the cultures were routinely screened for Mycoplasma contamination. A-549, MCF-7, and HCT-116 cells were obtained from American Type Culture Collection (ATCC), while RKO colon carcinoma cells were a kind gift of Dr Timothy Kinsella (Brown University, USA).
(§3) The viability of cells was determined in response to the newly synthesized compounds using the MTT (Sigma-Aldrich) assay. Briefly, cells were seeded into 96-well plates and allowed to attach overnight. Then, cells were exposed to various concentrations of compounds for 24, 48 or 72 h. Negative controls were treated with the same amount of DMSO solvent (1%). After treatment, the MTT solution (0.4 mg/ml) was added to each well and allowed to react with cells for 2–3 h at 37 °C. Next, the medium was removed, the formazan product formed was dissolved in 100 μl of DMSO, and the absorbance was determined at 540 nm using an ASYS UVM340 microplate reader (Biochrom Ltd.). The IC50 value, which represents the concentration of the compound required to inhibit cell growth by 50% compared to vehicle, was calculated using GraphPad Prism 8 software based on the curves plotting survival against dose averaged from at least three independent experiments.
For orientation: Tetrazolium dyes change colour on reduction, which living cells bring about.

Data set [2] relates to A-549 cells. The experiment in a line: MTT cell viability assay, A-549. The data set is classed as cell-based, human. The settings on record: for IC50: Homo sapiens, A549, MTT, 72 h, IC50 ± SD. The method, then:
as §1, §2, §3

Data set [3] concerns MCF-7 cells. The experiment in a line: MTT cell viability assay, MCF-7. It is filed as cell-based, human. As to conditions: Homo sapiens, MCF7, 72 h, IC50 ± SD. On the procedure:
as §1, §2, §3

For data set [4], the system named is HEK293 cells. The experiment in a line: MTT cell viability assay, HEK293. The data set is classed as cell-based, human. The settings on record: Homo sapiens, HEK293, IC50 ± SD.
The test system of data set [5] is HCT-116 cells. The experiment in a line: Colony formation (clonogenic) assay. The data set is classed as cell-based, human. The settings on record: HCT-116, 24 h pretreatment, 9 days culture. On the procedure: A total of 500 HCT-116 cells/well was seeded into six-well plates. After attachment, cells were pretreated with DMSO (1%) or various concentrations of 20d and 19b for 24 h. Following incubation, the medium was changed, and cells were cultured for 9 days. After culturing, cells were washed with phosphate-buffered saline (PBS), fixed with 100% methanol for 30 min, and then stained with 0.5% crystal violet for 15 min. The plates were air-dried, and visible colonies were counted using ImageJ software. The percentage viability of cells was calculated in comparison to the control.

Data set [6] deals with HCT-116 cells. The experiment in a line: Cell cycle distribution analysis by flow cytometry (PI staining). The data set is classed as cell-based, human. The settings on record: HCT-116, 24 to 72 h, vs vehicle. On the procedure:
Based on their antiproliferative activity, 20d and 19b were evaluated for their effect on cell cycle phase distribution and DNA content by flow cytometry.
HCT-116 and A-549 cells were seeded into culture plates and allowed to attach overnight. Then, cells were incubated with the investigated compounds for the indicated time points. After incubation, the harvested cells were fixed with ice-cold 75% ethanol and stored overnight at − 20 °C. Next, cells were rehydrated with PBS in ice for 15 min and washed twice in PBS. Finally, cells were stained with […] propidium iodide (PI) and […] RNase A in PBS for 30 min at room temperature. Cell cycle distribution was determined using a Guava easyCyte 8 flow cytometer (Merck Millipore) and FlowJo v10 software.
A general note: A flow cytometer gives signals particle by particle.

The structures appear in SMILES notation.

One may read the IC50 as the concentration that inhibits the measured activity by half. Low values mean greater potency in that assay, high ones weaker potency in that assay. The term melting point denotes the temperature of the solid-liquid transition. In turn, `COc1cc(-c2ccccc2)c2c(n1)C(OC(=O)Nc1ccc([N+](=O)[O-])cc1)CCC2` (stereo not shown) [Compound 19b, (2-methoxy-4-phenyl-5,6,7,8-tetrahydroquinolin-8-yl) N-(4-nitrophenyl)carbamate] yielded a melting point of 183 to 185 °C. Besides, in data set [1] (Homo sapiens, HCT-116, 72 h), the IC50 was ~13 µM. Moreover, in data set [1], the midpoint of inhibition, the IC50, lay at 13.5 ± 0.2 µM. Moreover, the “fold lower concentration than Cisplatin suppressing 50% of cell viability” value in data set [2] (A-549) is given as 5 fold. The same molecule returned a half-inhibitory concentration (IC50) in data set [2] of 15.7 ± 2.56 µM. The IC50 in data set [3] was > 50 µM. Further, the IC50 in data set [4] was > 50 µM. Further, the formation of colonies result in data set [5] is “effectively inhibited the formation of colonies in a concentration-dependent manner”. Further, in data set [6], the “increase in the number of cells in the G0/G1 phase” value is on record as < 14% and the “number of cells in the S-phase” value is reported as “substantial decrease”.

Molecule `O=c1cc(-c2ccccc2)c2c([nH]1)C(O)CCC2` (stereo not shown) [Compound 24, 8-hydroxy-4-phenyl-5,6,7,8-tetrahydro-1H-quinolin-2-one] had a melting point of 104 to 106 °C. Further, in data set [1] (HCT-116, MCF-7, A-549, concentrations up to 50 µM), the “cytotoxicity on tested cell lines” value is reported as “no cytotoxicity”. In addition, the IC50 in data set [1] (Homo sapiens, HCT-116, 72 h) is > 50 µM. For the same molecule, the concentration for half-maximal inhibition (IC50) in data set [2] was > 50 µM. Besides, the IC50 in data set [3] was > 50 µM. Moreover, in data set [4], the IC50 is > 50 µM.

The values above are taken from paper PMC9200803, “Design, synthesis, and biological evaluation of tetrahydroquinolinones and tetrahydroquinolines with anticancer activity” (Scientific Reports, 2022).
